Measured values from a melting point compilation (Tetko et al.; mined from patent text by program, amines drawn as free bases though some values may be those of a salt).

| Compound | melting point [°C] |
| --- | --- |
| Cc1noc(NS(=O)(=O)c2ccsc2COc2ccc3c(c2Cl)OCO3)c1Br | 152 to 154 |
| C=Cc1cc(C)c(C(=O)N=C(N)N)cc1S(C)(=O)=O | 223 to 226 |
| CNC(=O)c1cc(C)nc(NC(=O)c2cc(Cl)nn2-c2ncccc2Cl)n1 | 198 to 199 |
| COc1ccc2c(c1)c(CN(O)C(=O)N(C)C)c(C)n2C(=O)c1ccc(Cl)cc1 | 173 to 174 |
| O=Cc1ccc(OCc2ccc3ccccc3c2)cc1 | 103 to 109 |
| O=C(O)CCCCCCOc1cccc(-c2ccccc2)n1 | 74 to 75 |
| COc1ccc2c(c1CCc1ccccc1)CCCC2=O | 102 to 105 |
| COc1cc(OC)c2c(=O)[nH]c(-c3cccc(N4CCN(C(C)C)CC4)c3)nc2c1 | 251 to 253 |
| CCCCCc1oc(-c2ccc(Cl)cc2)nc1CC(=O)OCC | 52 to 53 |
| C[C@@H]1c2cc(F)ccc2-c2ccc(F)cc2N1S(=O)(=O)c1ccc(O)cc1O | 153 to 156 |
| COc1ccc(C=CC(C)=O)cc1 | 74 |
| CNC(=O)C1=C(c2ccccc2)OC(c2ccccc2)CC1=O (centres undefined) | 212 to 214 |
| O=C1c2cccc3cc4c([N+](=O)[O-])cccc4c(c23)C(=O)N1CCNCCCNCCN1C(=O)c2cccc3cc4c([N+](=O)[O-])cccc4c(c23)C1=O | > 340 |
| O=[N+]([O-])c1ccc(Oc2ccc(C(F)(F)F)cc2Cl)cc1CCl | 55 to 60 |
| COC(=O)CC(=O)c1ccc(-c2ccccc2)cc1 | 82 |
| COc1cccc(CNC(=O)c2nc(OC)c3ccccc3n2)c1 | 129 to 130 |
| CN(C)C(=O)C(=O)C1=CC2(CCCC2)c2ccccc21 | 119 to 121 |
| CCCCCCCCCCCCCCCCCCOc1ccc(C(C)=O)cc1 | 69 to 70 |
| COC(=O)CC(CCc1ccc(C)cc1)NC(C)=O (centres undefined) | 50 to 51 |
| Cc1c(NC(=O)c2cccc(Oc3ccccc3)c2)ccc2cc(CN3CCCC3)cnc12 | 147 to 148 |
| CC(C)(C)c1ccc2c(Cc3cccc4ccccc34)c3cc(C(C)(C)C)ccc3c(Cc3cccc4ccccc34)c2c1 | 285 |
| CCCNC(=O)N1N=C(c2ccc([N+](=O)[O-])cc2)c2cc(Cl)ccc2CC1C (centres undefined) | 186 to 187 |
| C#CCC(CC#C)(C(=O)NO)S(=O)(=O)c1ccc(OC)cc1 | 156 |
| Cn1nc(-c2ccc(F)cc2)c(-c2ccncc2)c1N | 155 to 158 |
| O=C(Nc1cccc(Br)c1)Nc1cc(NC(=O)Nc2cccc(Br)c2)cc(C(=O)O)c1 | > 300 |

| Compound | melting point [°C] |
| --- | --- |
| CCCCc1nc2c(N)nc3cccnc3c2n1CCNC(C)=O | 228 to 230 |
| COc1ccc2c(CCNCC#N)c[nH]c2c1 | 80 |
| COc1cc2c(cc1OC)-c1c(Cl)nc3ccccc3c1C2=O | 132 to 133 |
| COc1cc(OC)nc(NS(=O)(=O)C(C#N)C(C)C)n1 (centres undefined) | 91 to 93 |
| N#CC(C#N)=CN(N=C(C#N)C#N)c1ccc([N+](=O)[O-])cc1 | 179 to 181 |
| CC(C)(C)OC(=O)[C@@H](N)Cc1cc(I)c(O)c(I)c1 | 165 to 168 |
| COc1ccc(CNc2n[nH]cc2C)cc1OC1CCCC1 | 76 to 77 |
| CC(C)(CC(=O)c1ccc(Cl)c(Cl)c1)C(=O)O | 137 to 138 |
| CC(C(N)=O)c1ccc2c(c1)CCc1cccnc1S2 (centres undefined) | 174 to 175 |
| O=C(NC1=Nc2cc(O)ccc2C2=NCCN12)c1cccnc1 | 289 |
| CC(C)(C)OC(=O)N1C[C@@H](O)[C@H](n2ccnn2)C1 (relative stereo) | 91 to 93 |
| O=S1(=O)N=C2CCCN2c2ccc(S(=O)(=O)NC3CCCCC3)cc21 | 151 to 153 |
| O=C1C(Br)=C(c2cn(S(=O)(=O)c3ccccc3)c3ccccc23)C(=O)N1COCc1ccccc1 | 49 to 51 |
| COc1ccc(-c2ccc(C=NO)o2)cc1OC | 140 to 142 |
| NCC(=O)Nc1sccc1C(=O)c1ccccc1Cl | 156 to 158 |
| Cc1ccc2c(c1Cl)S(=O)(=O)N=CN2C1CC1 | 218 to 223 |
| O=C(NCCc1ccccc1)c1ccccc1-c1ccccc1CN1C(=O)c2ccccc2C1=O | 156 |
| CSC(=S)N1CC(C)(C)CSC1=Nc1ccccc1C(C)C | 77 to 79 |
| CSc1nc2cc(-c3cccnc3)cc(N)n2n1 | 161 to 163 |
| CCc1nn2ccc3oc(C)cc3c2c1CO | 127 to 129 |
| CCSc1nc2c(C(=S)OC)sc(C)c2[nH]1 | 170 to 172 |
| COc1ccc(-c2cc3c(OC)cc(OC)cc3nc2OC)cc1 | 106 to 107 |
| CCc1c(-c2ccccc2)ncc2c(N3CCCCC3)nnc(N3CCCCC3)c12 | 64 to 65 |
| COC(=O)[C@@H](NC(=O)[C@H](CC(C)C)NC(=O)[C@@H](NC(=O)OCc1ccccc1)C(C)C)[C@@H](C)O | 217 to 218 |
